{
  "source": "patent US20090029366A1",
  "about": "(priority 2007, published 2009)",
  "biological_target": "T1, human HCN1 (Homo sapiens, UniProt O60741)",
  "T1 construct": "expressed in transfected cells; host or cells: HEK-293H",
  "T1 sequence (O60741 1-890)": "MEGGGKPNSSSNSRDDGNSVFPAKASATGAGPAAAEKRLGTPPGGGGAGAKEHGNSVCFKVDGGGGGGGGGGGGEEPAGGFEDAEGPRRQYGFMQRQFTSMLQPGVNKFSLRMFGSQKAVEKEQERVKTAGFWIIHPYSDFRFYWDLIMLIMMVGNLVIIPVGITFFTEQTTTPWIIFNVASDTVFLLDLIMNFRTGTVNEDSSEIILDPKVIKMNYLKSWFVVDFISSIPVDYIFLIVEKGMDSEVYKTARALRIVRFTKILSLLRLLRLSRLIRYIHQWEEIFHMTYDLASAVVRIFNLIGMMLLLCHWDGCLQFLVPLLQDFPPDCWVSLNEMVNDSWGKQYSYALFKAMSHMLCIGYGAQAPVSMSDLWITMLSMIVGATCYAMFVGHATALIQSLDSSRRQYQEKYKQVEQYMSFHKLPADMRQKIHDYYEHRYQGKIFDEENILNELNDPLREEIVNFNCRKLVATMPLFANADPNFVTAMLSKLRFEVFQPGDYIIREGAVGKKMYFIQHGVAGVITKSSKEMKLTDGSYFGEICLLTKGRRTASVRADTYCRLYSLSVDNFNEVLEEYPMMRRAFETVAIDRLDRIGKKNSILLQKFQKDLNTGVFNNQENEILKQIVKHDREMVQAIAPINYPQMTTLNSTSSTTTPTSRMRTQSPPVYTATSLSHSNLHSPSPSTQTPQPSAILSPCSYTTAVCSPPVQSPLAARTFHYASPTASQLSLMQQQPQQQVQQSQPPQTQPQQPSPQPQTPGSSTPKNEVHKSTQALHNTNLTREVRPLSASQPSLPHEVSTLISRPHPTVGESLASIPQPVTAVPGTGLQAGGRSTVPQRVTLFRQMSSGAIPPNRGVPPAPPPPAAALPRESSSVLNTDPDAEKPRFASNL",
  "experiment": "Dose response of blockade of hyperpolarization (MPSD FLIPR), HCN1",
  "type": "cell-based",
  "settings": "HEK-293 clone",
  "experimental": "HEK-293H cells stably expressing a human HCN1 channel were plated and incubated in HBSS essentially as described in Examples 3 and 5. CHO-K1 cells stably expressing a human HCN4 channel were plated and incubated in HBSS essentially as described in Example 6. Varying concentrations of ZD7288 were added to HBSS for each of the test wells to determine the dose response of cells expressing HCN1 or HCN4 channels. The percent inhibition of hyperpolarization was calculated for a single dose using the following equation:\nThe data were fit with a Hill equation as described by the ratio 1/(1+([test agent]/IC50)^k, where IC50 is the concentration of a test agent required to inhibit one-half of the maximum current and k is the Hill coefficient.\nFIG. 10A depicts a typical dose response curve for a single HEK-293H HCN1 channel expressing clone in the presence of ZD7288. […] No statistical difference was found between the two means.",
  "note": "Read-outs that look alike come from different tables or passages of the source.",
  "data": [
    {"smiles": "CCN(c1ccccc1)c1cc(=NC)n(C)c(C)n1.Cl", "note": "[ZD7288]", "values": [
      {"measurement": "IC50", "setting": "group 1, n=8, mean ± 0.2 μM, read-out: IC50 mean, group 1", "result": 2100, "unit": "nM"},
      {"measurement": "IC50", "setting": "group 2, n=12, mean ± 0.8 μM, read-out: IC50 mean, group 2", "result": 2900, "unit": "nM"}
    ]}
  ]
}
